Assay results as given in patent US8124793B2, “Derivatives of ethylene methanedisulfonate as cancer chemotherapeutic agents” (priority 2007, dated 2012).

Tests used:
Type in all cases: cell-based
[1] = system: OVCAR-8; test: NCI screen, growth of human tumor cells: Ovarian Cancer OVCAR-8; conditions: OVCAR-8 (Ovarian Cancer), 10^−4 molar
Experimental: (§1) In the NCI screening process, each compound was tested and described by a minimum of 60 data points. The test data include, but are not limited to the type of cancer, the molar concentration used in the screen, and the percent growth of the cancer. In some cases, NMR and elemental analysis were used for structural assignment.

[2] = system: CAKI-1; test: NCI screen, growth of human tumor cells: Renal Cancer CAKI-1; conditions: CAKI-1 (Renal Cancer), 10^−4 molar
Experimental: as §1

[3] = system: MDA-MB-231/ATCC; test: NCI screen, growth of human tumor cells: Breast Cancer MDA-MB-231/ATCC; conditions: MDA-MB-231/ATCC (Breast Cancer), 10^−4 molar
Experimental: as §1

[4] = system: HCT-15; test: NCI screen, growth of human tumor cells: Colon Cancer HCT-15
Experimental: as §1

[5] = system: MCF 7; test: NCI screen, growth of human tumor cells: Breast Cancer MCF 7; conditions: MCF 7 (Breast Cancer), 10^−4 molar
Experimental: as §1

[6] = system: IGROVI; test: NCI screen, growth of human tumor cells: Ovarian Cancer IGROVI; conditions: IGROVI
Experimental: as §1

[7] = system: ACHN; test: NCI screen, growth of human tumor cells: Renal Cancer ACHN; conditions: ACHN (Renal Cancer), 10^−4 molar
Experimental: as §1

[8] = system: MCF7/ADR-RES; test: NCI screen, growth of human tumor cells: Breast Cancer MCF7/ADR-RES; conditions: MCF7/ADR-RES (Breast Cancer), 10^−4 molar
Experimental: as §1

[9] = system: OVCAR-3; test: NCI screen, growth of human tumor cells: Ovarian Cancer OVCAR-3; conditions: OVCAR-3 (Ovarian Cancer), 10^−4 molar
Experimental: as §1

[10] = system: NCI-H23; test: NCI screen, growth of human tumor cells: Non-Small Cell Lung NCI-H23; conditions: NCI-H23 (Non-Small Cell Lung), 10^−4 molar
Experimental: as §1

[11] = system: COLO205; test: NCI screen, growth of human tumor cells: Colon Cancer COLO205; conditions: COLO205 (Colon Cancer), 10^−4 molar
Experimental: as §1

[12] = system: NCI-H460; test: NCI screen, growth of human tumor cells: Non-Small Cell Lung NCI-H460; conditions: NCI-H460 (Non-Small Cell Lung), 10^−4 molar
Experimental: as §1

[13] = system: M14; test: NCI screen, growth of human tumor cells: Melanoma M14; conditions: M14 (Melanoma), 10^−4 molar
Experimental: as §1

[14] = system: human cancer cells; test: NCI screen summary over the cancers tested (negative growth of human cancer cells); conditions: 10^−4 M conc.; cancers with negative growth / cancers tested
Experimental: as §1
The derivatives in the tables are grouped using the same category as in the tables 1-6.

[15] = system: MALME-3M; test: NCI screen, growth of human tumor cells: Melanoma MALME-3M; conditions: MALME-3M (Melanoma), 10^−4 molar
Experimental: as §1

[16] = system: HCT-116; test: NCI screen, growth of human tumor cells: Colon Cancer HCT-116; conditions: HCT-116 (Colon Cancer), 10^−4 molar
Experimental: as §1

[17] = system: EKVX; test: NCI screen, growth of human tumor cells: Non-Small Cell Lung EKVX; conditions: EKVX
Experimental: as §1

[18] = system: PC-3; test: NCI screen, growth of human tumor cells: Prostate Cancer PC-3; conditions: PC-3 (Prostate Cancer), 10^−4 molar
Experimental: as §1

## O=C(c1ccccc1S(=O)(=O)O)C1S(=O)(=O)OCCOS1(=O)=O [NSC 693880]
[1]
  percent of growth of human tumor cells: −33%
[2]
  percent of growth of human tumor cells: −8%
[3]
  percent of growth of human tumor cells: 25%
[4]; HCT-15, 10^−4 molar
  % Growth: −41%
[4]; HCT-15, 10^−5 molar
  % Growth: 40%
[5]
  percent of growth of human tumor cells: −1%
[6]; 10^−4 molar
  % Growth: −21%
[6]; 10^−5 molar
  % Growth: 37%
[6]; 10^−6 molar
  % Growth: 60%
[7]
  percent of growth of human tumor cells: 8%
[8]
  percent of growth of human tumor cells: 4%
[9]
  percent of growth of human tumor cells: 76%
[10]
  percent of growth of human tumor cells: 12%
[11]
  percent of growth of human tumor cells: 5%
[12]
  percent of growth of human tumor cells: −11%
[13]
  percent of growth of human tumor cells: −4%
[14]
  Percentage of cancers showing negative growth cancers tested: 10^−4 M conc. = 8/17 = 47%
[15]
  percent of growth of human tumor cells: −15%
[16]
  percent of growth of human tumor cells: 20%
[17]; 10^−4 molar
  % Growth: 25%
[17]; 10^−5 molar
  % Growth: 6%
[18]
  percent of growth of human tumor cells: 5%
